According to patent US20230052298A1, “LACTIC ACID BACTERIUM FERMENTATION PROMOTER” (MEIJI CO., LTD., priority 2019, published 2023):

What was measured:
[1] = system: L. delbrueckii subsp. bulgaricus 2038; test: Test Example 2-1: fermentation time versus concentration of malic acid or fumaric acid; assay type: cell-based, Lactobacillus delbrueckii subsp. bulgaricus; conditions: L. bulgaricus 2038; from Tables 3 and 4
Procedure: The fermentation was carried out using a fermentation medium (raw material milk). The fermentation medium was prepared by adding formic acid to the 10% reduced skim milk medium so as to give a final concentration of 1 mM, and then sterilizing the mixture at 95° C., and was used. […] In the above fermentation medium, a lactic acid bacterial starter of […] was inoculated at 0.5% (with respect to the amount of fermentation medium), statically cultured at 40° C., and fermented. The fermentation time was the time required for the medium to reach pH 4.6.

[2] = system: L. delbrueckii subsp. bulgaricus 2038; test: Test Example 2-1: organic acid concentrations after fermentation (HPLC); assay type: cell-based, Lactobacillus delbrueckii subsp. bulgaricus; conditions: strain 2038
Procedure: The fermentation was carried out using a fermentation medium (raw material milk). The fermentation medium was prepared by adding formic acid to the 10% reduced skim milk medium so as to give a final concentration of 1 mM, and then sterilizing the mixture at 95° C., and was used. […] In the above fermentation medium, a lactic acid bacterial starter of […] was inoculated at 0.5% (with respect to the amount of fermentation medium), statically cultured at 40° C., and fermented. The fermentation time was the time required for the medium to reach pH 4.6. The measurement of the organic acid concentration after the completion of fermentation was carried out as follows. An aliquot of 0.4 g of the fermentate obtained (fermented milk) was diluted by 2-fold with pure water, 20 μL of Carrez's Reagent I (53.5% (w/v) zinc sulfate) was added thereto and the mixture was vortexed, and 20 μl of Carrez's Reagent II (17.2% (w/v) potassium ferrocyanide) was added thereto and the mixture was vortexed. The resulting mixture was centrifuged at 4° C., 20620 g for 10 minutes, and the supernatant was filtered through a 0.22 μm filter and the filtrate was analyzed under the conditions shown in Table 2.

[3] = system: Lactobacillus delbrueckii subsp. bulgaricus; test: Test Example 2-2: organic acid concentration in fermentate at completion of fermentation, formic acid medium; assay type: cell-based; conditions: 1 mM additive, 1 mM formic acid medium
Procedure: (§1) The strains shown in Tables 6 and 7 were precultured in the preculture medium and then used. The activation medium used was a 10 mass % reduced skim milk medium containing 0.1 mass % yeast extract, sterilized at 121° C. for 7 minutes. Here, the 10 mass % reduced skim milk medium is a 10 mass % aqueous solution of skim milk powder (fat 1 mass %, protein 34 mass %, lactose 54 mass %, ash 8 mass %, non-fat milk solid 96 mass %) (manufactured by Meiji Co., Ltd.) (in the above medium, lactose 5.4 mass %, non-fat milk solid 9.6 mass %). Frozen bacteria were added to the above-mentioned activation medium in an amount of 0.1 mass % (with respect to the amount of the activation medium) and statically cultured at 37° C. for 16 hours to obtain an activation solution. An aliquot of 0.1 mass % of the activation solution obtained (with respect to the amount of activation medium) was added to another activation medium, and the mixture was allowed to stand at 37° C. for 16 hours to obtain a lactic acid bacterial starter. Then, fermentation was carried out using a fermentation medium as raw material milk. The fermentation medium was prepared by adding formic acid to the 10 mass % reduced skim milk medium so as to give a final concentration of 1 mM, and then sterilizing the mixture at 95° C., and was used. […] The pH of the fermentation medium was about 6.4. The lactic acid bacterial starter of each strain obtained above was inoculated into the fermentation medium in an amount of 2.5 mass % (with respect to the amount of the fermentation medium), statically cultured at 40° C., and fermented. The fermentation time was the time required for the medium to reach pH 4.6. The pH value was measured using a commercially available pH meter.

[4] = system: L. salivarius; test: Test Example 5: organic acid concentrations after fermentation; assay type: cell-based, Lactobacillus salivarius; conditions: 1 mM added
Procedure: (§2) The measurement of the organic acid concentration after the completion of fermentation was carried out as follows. An aliquot of 0.4 g of the fermentate obtained (fermented milk) was diluted by 2-fold with pure water, 20 μL of Carrez's Reagent I (53.5% (w/v) zinc sulfate) was added thereto and the mixture was vortexed, and 20 μl of Carrez's Reagent II (17.2% (w/v) potassium ferrocyanide) was added thereto and the mixture was vortexed. The resulting mixture was centrifuged at 4° C., 20620 g for 10 minutes, and the supernatant was filtered through a 0.22 μm filter and the filtrate was analyzed under the conditions shown in Table 2. [table] The measurement of the organic acid concentration after the completion of fermentation by L. rhamnosus and L. salivarius in Test Example 3 or 4 was carried out in the same manner as in Test Example 2-1. The addition of malic acid or fumaric acid promoted production of succinic acid by L. rhamnosus and L. salivarius.

[5] = system: Lactobacillus delbrueckii subsp. bulgaricus; test: Test Example 8: organic acid concentration in fermentate at completion of fermentation, inosinic acid medium; assay type: cell-based; conditions: 1 mM additive, 1 mM inosinic acid medium
Procedure: as §1, with “Tables 13” for “Tables 6”, “and 14” for “and 7”, “adding inosinic” for “adding formic”

[6] = system: Lactobacillus delbrueckii subsp. bulgaricus OLL1073R-1; test: Test Example 9: EPS production during culture; assay type: cell-based; conditions: 4 mM added; strain OLL1073R-1; 37° C.; compared with the control
Procedure: Frozen bacteria of Lactobacillus delbrueckii subsp. bulgaricus OLL1073R-1 were prepared.
Raw material components other than anhydrous crystalline glucose were dissolved in Elix water, the mixture was adjusted to pH 6.65 using sodium hydroxide, and then diluted in measuring flask to 70 wt % of the charge amount of the medium. Anhydrous crystalline glucose was dissolved in Elix water, and diluted in measuring flask to 30 wt % of the charge amount of the medium.
In addition, the raw material components other than sugar solution and sugar were sterilized separately by heating at 110° C. for 1 minute in an autoclave and then aseptically mixed and used.
An aliquot of 1.5 kg of the above medium was adjusted to pH 5.4 using 6 N potassium carbonate, to the medium, 0.30 mass % of frozen bacteria (with respect to the amount of medium) was inoculated, and the bacteria were cultured at 37° C. while top ventilating with nitrogen at a flow rate of 0.5 L/min and stirring under the condition of 150 rpm.
The EPS concentration was measured under the following conditions. […]
The supernatant was removed by centrifuging (4° C., 13400 g, 20 min), and 20 ml of cooled 66% ethanol was added thereto to suspend the precipitate. […] The EPS concentration of the analysis sample was measured by the phenol-sulfuric acid method.

[7] = system: L. rhamnosus; test: Test Example 5: organic acid concentrations after fermentation; assay type: cell-based, Lactobacillus rhamnosus; conditions: 1 mM added
Procedure: as §2

[8] = No addition of L. delbrueckii subsp. bulgaricus

Structure (SMILES)	Concentrations at which a fermentation promoting effect was confirmed [1] [mM]	Concentration of fumaric acid ([2]; 1 mM added) [mM]	Concentration of malic acid ([2]; 1 mM added) [mM]	Concentration of malic acid [3, 8] [mM]	Concentration of succinic acid [3, 8] [mM]	Concentration of succinic acid in fermentate at completion of fermentation (pH 4.6) ([3]; strain 2038) [mM]	Concentration of succinic acid in fermentate at completion of fermentation (pH 4.6) ([3]; strain OLL1073R-1) [mM]	Concentration of succinic acid in fermentate at completion of fermentation (pH 4.6) ([3]; strain OLL1171) [mM]	Concentration of succinic acid in fermentate at completion of fermentation (pH 4.6) ([3]; strain OLL1247) [mM]	Concentration of succinic acid in fermentate at completion of fermentation (pH 4.6) ([3]; strain OLL1255) [mM]	Concentration of succinic acid in fermentate at completion of fermentation (pH 4.6) ([3]; strain OLL205013) [mM]	Concentration of succinic acid in fermentate at completion of fermentation (pH 4.6) ([3]; strain P1902901) [mM]	Concentration of fumaric acid [4] [mM]	Concentration of malic acid [4] [mM]	Concentration of succinic acid [4] [mM]	Concentration of malic acid [5, 8] [mM]	Concentration of succinic acid [5, 8] [mM]	Concentration of succinic acid in fermentate at completion of fermentation (pH 4.6) ([5]; strain 0LL1171) [mM]	Concentration of succinic acid in fermentate at completion of fermentation (pH 4.6) ([5]; strain 2038) [mM]	Concentration of succinic acid in fermentate at completion of fermentation (pH 4.6) ([5]; strain OLL1073R-1) [mM]	further results
O=C(O)CC(O)C(=O)O (centres unmarked) [Malic acid, malic acid]	0.01 to 50	0.00	0.00	0.99	0.08	1.71	1.67	1.57	1.67	1.03	1.55	1.59	0.35	0.75	0.28	1.06	0.06	1.40	1.40	1.50	Concentration of succinic acid ([2]; 1 mM added): 1.94 mM; Concentration of fumaric acid ([2]; 10 mM added): 0.03 mM; Concentration of malic acid ([2]; 10 mM added): 4.27 mM; Concentration of succinic acid ([2]; 10 mM added): 5.78 mM; Concentration of fumaric acid ([2]; 50 mM added): 0.21 mM; Concentration of malic acid ([2]; 50 mM added): 42.05 mM; Concentration of succinic acid ([2]; 50 mM added): 9.84 mM; Concentration of malic acid in fermentate at completion of fermentation (pH 4.6) ([3]; strain OLL1255): 0.35 mM; Concentration of succinic acid in fermentate at completion of fermentation (pH 4.6) ([5]; strain OLL1247): 1.53 mM; Concentration of succinic acid in fermentate at completion of fermentation (pH 4.6) ([5]; strain OLL1255): 1.46 mM; Concentration of succinic acid in fermentate at completion of fermentation (pH 4.6) ([5]; strain OLL205013): 1.53 mM; Concentration of succinic acid in fermentate at completion of fermentation (pH 4.6) ([5]; strain P1902901): 1.38 mM; EPS concentration with the culturing time (FIG. 1) [6]: higher concentration compared with the control
O=C(O)/C=C/C(=O)O [Fumaric acid, fumaric acid]	0.01 to 2.5	0.00	0.00	0.11	0.07	1.67	1.73	1.58	1.72	1.49	1.54	1.59	0.62	0.51	0.29	0.13	0.06	1.43	1.43	1.52	Concentration of fumaric acid [3, 8]: 1.11 mM; Concentration of fumaric acid in fermentate at completion of fermentation (pH 4.6) ([3]; strain OLL1255): 0.15 mM; Concentration of succinic acid [7]: 1.39 mM; Concentration of fumaric acid [5, 8]: 1.12 mM; Concentration of succinic acid in fermentate at completion of fermentation (pH 4.6) ([5]; strain OLL1247): 1.57 mM; Concentration of succinic acid in fermentate at completion of fermentation (pH 4.6) ([5]; strain OLL1255): 1.49 mM; Concentration of succinic acid in fermentate at completion of fermentation (pH 4.6) ([5]; strain OLL205013): 1.60 mM; Concentration of succinic acid in fermentate at completion of fermentation (pH 4.6) ([5]; strain P1902901): 1.40 mM; EPS concentration with the culturing time (FIG. 1) [6]: higher concentration compared with the control
